Data reported in ChEMBL document CHEMBL1201862, “PubChem BioAssay data set” (2004).
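Protocol summary: plate cells (96-well), add compound at 5 concentrations, incubate 48 h, interpolate endpoints linearly. GI50 is the concentration that inhibits growth by half.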 Calls of active or inactive are those of the source. Rule as the data show it: active = GI50 up to about 1.1 µM and inactive = higher.

Key:
Assay in all cases: NCI tumour cell line growth inhibition, 48 h
PC-3 = tested on: PC-3
DU-145 = tested on: DU-145
HCT-15 = tested on: HCT-15
SR = tested on: SR
SNB-75 = tested on: SNB-75
UACC-257 = tested on: UACC-257
T47D = tested on: T47D
SK-MEL-2 = tested on: SK-MEL-2
NCI/ADR-RES = tested on: NCI/ADR-RES
NCI-H226 = tested on: NCI-H226
KM12 = tested on: KM12
SF-268 = tested on: SF-268
RXF 393 = tested on: RXF 393
OVCAR-3 = tested on: OVCAR-3
SF-295 = tested on: SF-295
RPMI-8226 = tested on: RPMI-8226
BT-549 = tested on: BT-549
SK-MEL-28 = tested on: SK-MEL-28
MOLT-4 = tested on: MOLT-4

SMILES	GI50 (PC-3)	GI50 (DU-145)	GI50 (HCT-15)	GI50 (SR)	GI50 (SNB-75)	GI50 (UACC-257)	GI50 (T47D)	GI50 (SK-MEL-2)	GI50 (NCI/ADR-RES)	GI50 (NCI-H226)	GI50 (KM12)	GI50 (SF-268)	GI50 (RXF 393)	GI50 (OVCAR-3)	GI50 (SF-295)	GI50 (RPMI-8226)	GI50 (BT-549)	GI50 (SK-MEL-28)	GI50 (MOLT-4)
CN(C)Cc1cc(Cl)c(O)c(CN(C)C)c1	> 100 µM (inactive)	> 100 µM (inactive)	> 100 µM	> 100 µM (inactive)	> 100 µM (inactive)	> 100 µM (inactive)	> 100 µM (inactive)	> 100 µM (inactive)	> 100 µM (inactive)	> 100 µM (inactive)	> 100 µM (inactive)	> 100 µM (inactive)	> 100 µM (inactive)	> 100 µM (inactive)	> 100 µM (inactive)	> 100 µM (inactive)	> 100 µM (inactive)	> 100 µM (inactive)	–
CN(C)CCCNc1c2ccccc2[n+]([O-])c2ccccc12	46.5 µM (inactive)	> 100 µM (inactive)	41.4 µM	–	51.4 µM (inactive)	56.8 µM (inactive)	78 µM (inactive)	> 100 µM (inactive)	> 100 µM (inactive)	22 µM (inactive)	39.3 µM (inactive)	74.6 µM (inactive)	47.8 µM (inactive)	66.8 µM (inactive)	54 µM (inactive)	46.7 µM (inactive)	19.1 µM (inactive)	> 100 µM (inactive)	42.4 µM (inactive)
O=C(NC1=C(Cl)C(=O)c2ccccc2C1=O)c1ccccc1	24.9 µM (inactive)	55.1 µM (inactive)	25.2 µM	38.4 µM (inactive)	65 µM (inactive)	> 10 µM (inactive)	22.1 µM (inactive)	–	18.5 µM (inactive)	24.5 µM (inactive)	32.1 µM (inactive)	64.1 µM (inactive)	18.9 µM (inactive)	19.1 µM (inactive)	36 µM (inactive)	44.4 µM (inactive)	19.9 µM (inactive)	44.8 µM (inactive)	20.1 µM (inactive)
COc1ccc2[nH]cc(C(=O)C(=O)NC34CC5CC(CC(C5)C3)C4)c2c1	38.3 µM (inactive)	39.4 µM (inactive)	9.16 µM	–	37.9 µM (inactive)	67.5 µM (inactive)	54.1 µM (inactive)	57.8 µM (inactive)	55.2 µM (inactive)	22.9 µM (inactive)	> 26.9 µM (inactive)	> 61.1 µM (inactive)	3.22 µM (inactive)	8.97 µM (inactive)	6.9 µM (inactive)	4.69 µM (inactive)	43.3 µM (inactive)	15.4 µM (inactive)	2.66 µM (inactive)
CC12CCC(C(Nc3cc(C(F)(F)F)cc(C(F)(F)F)c3)C1=O)C2(C)C (stereo unspecified)	> 100 µM (inactive)	> 100 µM (inactive)	> 100 µM	> 100 µM (inactive)	–	> 100 µM (inactive)	> 100 µM (inactive)	> 100 µM (inactive)	> 100 µM (inactive)	> 100 µM (inactive)	> 100 µM (inactive)	> 100 µM (inactive)	–	> 100 µM (inactive)	> 100 µM (inactive)	> 100 µM (inactive)	> 100 µM (inactive)	> 100 µM (inactive)	> 100 µM (inactive)
COc1cc2ccc1OCc1cccc(n1)COc1ccc(cc1OC)/C=N\c1ccc(cc1)/N=C\2	> 100 µM (inactive)	> 100 µM (inactive)	> 100 µM	> 100 µM (inactive)	> 100 µM (inactive)	> 100 µM (inactive)	> 100 µM (inactive)	> 100 µM (inactive)	> 100 µM (inactive)	> 100 µM (inactive)	> 100 µM (inactive)	> 100 µM (inactive)	> 100 µM (inactive)	> 100 µM (inactive)	> 100 µM (inactive)	–	> 100 µM (inactive)	–	> 100 µM (inactive)
Cc1ccc2nc3c(=O)[nH]c(=O)nc-3n(C)c2c1C	> 100 µM (inactive)	> 100 µM (inactive)	> 100 µM	–	> 100 µM (inactive)	> 100 µM (inactive)	> 100 µM (inactive)	> 100 µM (inactive)	> 100 µM (inactive)	> 100 µM (inactive)	> 100 µM (inactive)	> 100 µM (inactive)	> 100 µM (inactive)	> 100 µM (inactive)	> 100 µM (inactive)	> 100 µM (inactive)	> 100 µM (inactive)	> 100 µM (inactive)	> 100 µM (inactive)
COC(=O)C1=C(C)NC(C)=C(C(=O)OC)C1c1cccc(NO)c1	15 µM (inactive)	22 µM (inactive)	19.3 µM	> 100 µM (inactive)	–	14.4 µM (inactive)	13.5 µM (inactive)	15.2 µM (inactive)	20 µM (inactive)	15.2 µM (inactive)	15.9 µM (inactive)	16.6 µM (inactive)	13.9 µM (inactive)	16 µM (inactive)	25.9 µM (inactive)	> 100 µM (inactive)	18.4 µM (inactive)	15.1 µM (inactive)	–
